According to patent US7973053B2, “Nerve cell death inhibitor” (priority 2007, dated 2011):
Structures can show the parent of a compound that is named as a salt.

Experiments:
nerve cells = settings: pitavastatin 3 mg/kg single administration; Non-Patent Document 9; cited from earlier work
[1] = system: nerve cells in the hippocampus CA1 region; test: rat model for revascularization of vertebral-carotid artery occlusion (4-point ischemia), nerve cell death in hippocampus CA1; type: in vivo; settings: oral once a day for 6 days
Procedure: Seven-week old Crlj:WI male rats (Charles River Laboratories Japan Inc.) were obtained, and they were provided to the experiment after being subjected to quarantine (for 5 days) and acclimatization (for 7 days or more). Throughout the experimentation period, the rats were bred in a breeding chamber maintained under a light-dark cycle (light period under room light: 6:00 AM to 6:00 PM), at a temperature of 23±3° C. and a humidity of 55±15%, and were allowed to freely take in solid feedstuff (CRF-1; Oriental Yeast Co., Ltd.) and drinking water (tap water).
Pitavastatin and ARICEPT were each suspended in a 0.5% (w/v) aqueous solution of carboxymethylcellulose sodium (hereinafter, CMC-Na, SIGMA), and prepared just before use such that the amount of administration would be 5 mL/kg.
The day of grouping was counted as the first day of administration, and the test drug was orally administered once a day for 6 days, thus 6 times in total. The normal group and the solvent control group were administered with a 0.5% (w/v) aqueous solution of CMC-Na.
On the fifth day of administration, 35 mg/kg of pentobarbital sodium (Nembutal (registered trademark) injectable solution, Dainippon Pharmaceutical Co., Ltd.) was intraperitoneally administered to the rats excluding those in the normal group. The right and left alar foramens were exposed from the first cervical spine part under anesthesia, and the vertebral arteries were thermally solidified using a soldering iron, so as to permanently occlude the vertebral arteries on both sides. […]
The fixated brains were dehydrated, infiltrated and embedded in paraffin, and a section having a thickness 10 μm was produced from the vicinity of Bregma −3.3 mm. […] The number of nerve cells was counted using an image analyzer (Win ROOF V5.6, Mitani Corporation), and the length of CA1 was measured.
According to the following formula, the number of nerve cells per unit length was determined, and the average value and standard deviation were calculated for each group. […]

Row | SMILES | increase in the number of nerve cells, as reported in the literature (nerve cells) | number of nerve cells in the hippocampus CA1 region (cells/mm) vs solvent control group ([1]; Example 1, pitavastatin 3 mg/kg single administration, FIG. 1) | number of nerve cells in the hippocampus CA1 region (cells/mm) vs solvent control group ([1]; Comparative Example 1, ARICEPT 0.5 mg/kg single administration, FIG. 2) | number of nerve cells in the hippocampus CA1 region (cells/mm) vs solvent control group ([1]; Example 1, ARICEPT 0.5 mg/kg single administration, FIG. 1)
1 | O=C([O-])C[C@H](O)C[C@H](O)/C=C/c1c(C2CC2)nc2ccccc2c1-c1ccc(F)cc1.O=C([O-])C[C@H](O)C[C@H](O)/C=C/c1c(C2CC2)nc2ccccc2c1-c1ccc(F)cc1.[Ca+2] [pitavastatin, pitavastatin calcium] | presence of significant difference | not significant |  | 
2 | COc1cc2c(cc1OC)C(=O)C(CC1CCN(Cc3ccccc3)CC1)C2 (stereo not shown) [ARICEPT, donepezil hydrochloride] |  |  | not significant | not significant
